According to patent publication US20070232609A1, “Novel Antiparasitic Combination of Active Compounds” (BAYER HEALTHCARE AG, priority 2004, published 2007):

Tested on: Eimeria acervulina, E. maxima, E. tenella
Assay: Cage experiment on coccidiosis/chicks
Format: in vivo
Settings: for Mortality %: day -3 to 8 (9) p.i.; for % efficacy (total score): 0% no action, 100% full action; for Dropping score / Lesion score: assessment 0 to 6
Experimental: The efficacy of the compounds according to the invention can be confirmed, for example, in cage experiments with the following experimental arrangement, in which the animals are treated with the respective individual components and with the mixtures of the individual components.
An active compound-containing feed is prepared such that the required amount of active compound is basically mixed with a nutritionally balanced animal feed, e.g. with the chick feed indicated below.
Cage Experiment on Coccidiosis/Chicks
8- to 12-day-old male chicks (e.g. LSL Brinkschulte/Senden) which have been reared coccidia-free receive the compounds according to the invention (test substances) in the concentration indicated in ppm with the feed from 3 days before (day −3) infection (=a.i.) until 8 (9) days after infection (=p.i.). 3 animals are kept in each cage. One or more groups of this type are employed per dose. Infection is carried out by means of a stomach tube directly into the crop with approximately 100 000 sporulated oocysts of Eimeria acervulina and with approximately 30 000 oocysts each of E. maxima and 40 000 sporulated oocysts of E. tenella. These are highly virulent strains. The exact infection dose is adjusted so that, if possible, one of three experimentally infected untreated chicks dies due to the infection. For assessment of the efficacy, the following criteria are taken into account: weight increase from the start of the experiment to the end of the experiment, death rate due to infection, macroscopic assessment of the faeces with respect to diarrhea and excretion of blood on days 5 and 7 p.i. (assessment 0 to 6), macroscopic assessment of the intestinal mucosa, in particular of the appendices (assessment 0 to 6) and the oocyst excretion as well as the proportion (in %) of the oocysts sporulating in the course of 24 hours. The number of oocysts in the faeces was determined with the aid of a McMaster counting chamber (see Engelbrecht and coworkers “Parasitologische Arbeitsmethoden in Medizin und Veterinärmedizin” [Parasitological Working Methods in Medicine and Veterinary Medicine], Akademie-Verlag, Berlin (1965)). The individual findings are related to the untreated non-infected control groups and a total score is calculated (cf. A. Haberkorn (1986), pp. 263 to 270 in Research in Avian Coccidiosis ed. L. R. McDougald, L. P. Joyner, P. L. Long, Proceedings of the Georgia Coccidiosis Conference, Nov. 18-20, 1985, Athens/Georgia USA).
In the column “ppm”, the concentration of the active compound employed in the feed is indicated in ppm.
In the column “mortality”, the percentage of the dead animals is indicated under % and the number of dead animals/animals employed in the experiment is indicated under n.
In the column “weight % of not inf. control”, the ratio of the weight of the treated animals to the weight of the non-infected control group is indicated.
In the columns “dropping scores”, “lesion score” and “oocyst control”, individual details of the action are given.
In the column “% efficacy”, the total score is assessed; 0% means no action, 100% means full action.

FC(F)(F)c1nc2c(Cl)cc3c(c2[nH]1)OC(F)(F)C(F)(F)O3 [(I-A)*]
Mortality n (dead animals/animals employed) (1 ppm in feed): 0/3
Oocysts in % of inf. control (1 ppm in feed): 36.0 % of inf. control
Weight in % of not inf. control (1 ppm in feed): 16 % of not inf. control
Mortality % (1 ppm in feed): 0%
% efficacy (total score) (1 ppm in feed): 15.7%
Dropping score (1 ppm in feed): 6
Lesion score (1 ppm in feed): 6
Mortality n (dead animals/animals employed) (2.5 ppm in feed): 0/3
Oocysts in % of inf. control (2.5 ppm in feed): 80.7 % of inf. control
Weight in % of not inf. control (2.5 ppm in feed): 41 % of not inf. control
Mortality % (2.5 ppm in feed): 0%
% efficacy (total score) (2.5 ppm in feed): 12.3%
Dropping score (2.5 ppm in feed): 6
Lesion score (2.5 ppm in feed): 6

N#CC(c1ccc(Cl)cc1)c1c(Cl)cc(-n2ncc(=O)[nH]c2=O)cc1Cl (stereo not shown) [Diclazuril]
Mortality n (dead animals/animals employed) (0.05 ppm in feed): 0/3
Oocysts in % of inf. control (0.05 ppm in feed): 17.0 % of inf. control
Weight in % of not inf. control (0.05 ppm in feed): 86 % of not inf. control
Mortality % (0.05 ppm in feed): 0%
% efficacy (total score) (0.05 ppm in feed): 69.3%
Dropping score (0.05 ppm in feed): 0
Lesion score (0.05 ppm in feed): 0
Mortality n (dead animals/animals employed) (0.1 ppm in feed): 0/3
Oocysts in % of inf. control (0.1 ppm in feed): 14.0 % of inf. control
Weight in % of not inf. control (0.1 ppm in feed): 92 % of not inf. control
Mortality % (0.1 ppm in feed): 0%
% efficacy (total score) (0.1 ppm in feed): 77.0%
Dropping score (0.1 ppm in feed): 0-2
Lesion score (0.1 ppm in feed): 0
